Measured values published in patent US6087355A, “Cephalosporin antibiotics” (Microcide Pharmaceuticals, Inc., priority 1996, dated 2000).
Counter-ions that a name gives are not always drawn.

How the values were obtained:
[1] = test system: S. aureus PC1(Meth^S)(lac^+); assay: In vitro MIC, agar dilution; type: cell-based; conditions: Staphylococcus aureus, read-out: minimum inhibitory concentration (MIC)
Experimental: (§1) The compounds of the invention were evaluated against several β-lactamresistant (for example methicillin-resistant, vancomycin resistant, and/or ampicillin-resistant) bacteria strains by determining the minimum inhibitory concentration (MIC, μg/ml) of each compound with respect to each strain. The MIC, the lowest concentration of antibiotic which inhibits growth of the test organism, was determined by the agar dilution method.
(§2) To determine the MIC for bacterial isolates, the test compound was incorporated in a series of two-fold dilutions into liquified Mueller-Hinton agar. Upon solidification, a number of different bacterial strains were spot inoculated with a replicating device onto the agar surface.
(§3) Aliquots of antimicrobial agents were prepared in phosphate buffered saline (PBS) at pH 7.2. Tween 20 or DMSO was used as a solubilizing vehicle as needed. Standard methods of vortexing, sonicating and gentle heat were used to facilitate solubilizing the test agent. […] A 1.28 mg/mL stock solution was used with a subsequent highest working concentration of 128 μg/mL. Serial two-fold dilutions were done through ≤0.25 μg/mL. Each drug level was tested in duplicate. Two-fold drug dilutions were done in sterile 50 mL tubes with a final drug volume of 5 mL. Upon the addition of 45 mL of molten agar, a 10-fold dilution resulted. Two, 25 mL. plates were then poured into 15×150 mm square Petri plates with grids and allowed to harden.
(§4) A control plate with a reference drug, either cefotaxime, vancomycin or imipenem, was used as the positive growth control. Stock concentrations of reference antibiotics were prepared and frozen at -80° C. […] All test plates were used within 24 hours of preparation.
(§5) Satisfactory results were obtained where the inoculum contained about 10^4 colony forming units (cfu)±0.5 logs. Starting with pure cultures of the test isolates on agar plates, a few isolated colonies were transferred to a tube of nutrient broth and allowed to grow 4-6 hours at 35-36° C. to reach log-phase growth. Dropwise addition of the broth culture to PBS was done to match a 0.5 McFarland turbidity standard equal to 10^8 cfu/mL. This was further diluted ten-fold in PBS to reach a working inoculum concentration of 10^7 cfu/mL. When 1 μL of the working inoculum was applied to the agar surface a concentration of about 10^4 cfu per spot was obtained.
(§6) Disposable sterile 1 μL loops were used to inoculate test plates, with each isolate in a designated grid on the agar plate. An alternate method of inoculation involved the use of a replica plater, a device with 48 steel pins allowing the simultaneous inoculation of multiple isolates. After the spots had dried, the plates were incubated at 35-36° C. for 16-20 hours. Endpoints were assessed as the minimum inhibitory concentration (MIC) of antimicrobial agent.

[2] = test system: S. aureus ATCC 13709(Meth^S); assay: In vitro MIC, agar dilution; type: cell-based; conditions: Staphylococcus aureus, ATCC13709, S. aureus ATCC 13709(Meth^S); read-out: minimum inhibitory concentration (MIC)
Experimental: as §1, §2, §3, §4, §5, §6

E. faecalis VanB(Van^R) = assay: In vitro MIC, agar dilution; type: cell-based; conditions: Enterococcus faecalis, read-out: minimum inhibitory concentration (MIC)
Experimental: as §1, §2, §3, §4, §5, §6

E. coli ATCC 25992 = assay: In vitro MIC, agar dilution; type: cell-based; conditions: Escherichia coli, ATCC25992, read-out: minimum inhibitory concentration (MIC)
Experimental: as §1, §2, §3, §4, §5, §6

[3] = test system: S. aureus ATCC 33593(Meth^R); assay: In vitro MIC, agar dilution; type: cell-based; conditions: Staphylococcus aureus, ATCC33593, read-out: minimum inhibitory concentration (MIC)
Experimental: as §1, §2, §3, §4, §5, §6

P. aeruginosa ATCC 27853 = assay: In vitro MIC, agar dilution; type: cell-based; conditions: Pseudomonas aeruginosa, ATCC27853, read-out: minimum inhibitory concentration (MIC)
Experimental: as §1, §2, §3, §4, §5, §6

[4] = test system: S. aureus Spain #356(Meth^R); assay: In vitro MIC, agar dilution; type: cell-based; conditions: Staphylococcus aureus, read-out: minimum inhibitory concentration (MIC)
Experimental: as §1, §2, §3, §4, §5, §6

E. faecium A491(Amp^R) = assay: In vitro MIC, agar dilution; type: cell-based; conditions: Enterococcus faecium, read-out: minimum inhibitory concentration (MIC)
Experimental: as §1, §2, §3, §4, §5, §6

E. faecalis ATCC 29212 = assay: In vitro MIC, agar dilution; type: cell-based; conditions: Enterococcus faecalis, ATCC29212, read-out: minimum inhibitory concentration (MIC)
Experimental: as §1, §2, §3, §4, §5, §6

[5] = test system: S. haemolyticus 05(Meth^R); assay: In vitro MIC, agar dilution; type: cell-based; conditions: Staphylococcus haemolyticus, read-out: minimum inhibitory concentration (MIC)
Experimental: as §1, §2, §3, §4, §5, §6

[6] = test system: S. aureus 76(Meth^R)(lac^+); assay: In vitro MIC, agar dilution; type: cell-based; conditions: Staphylococcus aureus, read-out: minimum inhibitory concentration (MIC)
Experimental: as §1, §2, §3, §4, §5, §6

E. faecium ATCC 35667 = assay: In vitro MIC, agar dilution; type: cell-based; conditions: Enterococcus faecium, ATCC35667, read-out: minimum inhibitory concentration (MIC)
Experimental: as §1, §2, §3, §4, §5, §6

E. faecium VanA(Van^R) = assay: In vitro MIC, agar dilution; type: cell-based; conditions: Enterococcus faecium, read-out: minimum inhibitory concentration (MIC)
Experimental: as §1, §2, §3, §4, §5, §6

S. aureus ATCC 29213 = assay: In vitro MIC, agar dilution; type: cell-based; conditions: Staphylococcus aureus, ATCC29213, read-out: minimum inhibitory concentration (MIC)
Experimental: as §1, §2, §3, §4, §5, §6

[7] = test system: S. aureus strain ATCC 13709 (methicillin-susceptible); assay: Murine model for lethal bacteremic peritonitis; type: in vivo, female Swiss-Webster mice; conditions: Staphylococcus aureus, ATCC13709, SC, 72 h
Experimental: Groups of 5 female Swiss-Webster mice (Simonsen, Gilroy, Calif.) each are challenged by the intraperitoneal (IP) route with tenfold increments of a bacterial inoculum. This permits calculation of the mean lethal dose (LD50) and the LD100. For preliminary evaluation of a new antibiotic, mice are challenged IP with an LD100 titer of bacteria. In two equal doses administered at the time of bacterial challenge and 2 hours later, groups of 10 mice each are treated subcutaneously with two-fold increments of the test drug and an antibiotic of known efficacy in mice and humans (i.e., positive control). Mice are observed for 72 h. Those alive at 72 h are considered long term survivors. The total drug dose in mg/kg that protects 50% of mice in a group from death is termed the mean protective dose (PD50). PD50 s are similarly determined for several pathogens. The quantitative endpoints for the new drug are then compared with those obtained with reference antibiotics.
Six ten-fold dilutions of inoculum suspended in 0.5 mL of sterilized 7% hog gastric mucin (Sigma) are injected IP in groups of 5 mice each. A control group of 5 mice receive mucin alone. Mice are observed for 72 h. Those alive at 72 h are considered long term survivors. The mean lethal dose (LD50) and 100% lethal dose (LD100) are determined by the probit test.
For antibiotic efficacy studies, mice are challenged IP with bacterial titers that will afford an LD100 for the test strain. In two equal doses administered at the time of bacterial challenge and 2 hours later, groups of 10 mice each are treated by the subcutaneous route (SC) with twofold increments of the test antibiotic; another group is treated similarly with a reference antibiotic of known efficacy in animals and man. Drug doses can range from 0.01 to 512 mg/kg. If the drug is poorly soluble, Tween 20 or propylene glycol will be employed to solubilize the drug. Animals are observed for 72 h. The 50% protective dose (PD50) is calculated in mg/kg by the probit method. The PD50 is the same as the 50% effective dose (ED50) and the 50% curative dose (CD50). Samples of blood from the hearts of all animals that die and from half the mice that survive are cultured on brain-heart infusion agar. Animals that received a protective dosage of the test drug will be alive at 72 h, although they may appear moderately ill to very ill during the observation period. […] Most of these mice will die within 6 to 48 h. Those alive at 72 h will be considered long term survivors.
(Compound numbers correspond to those in MIC tables; data reported for challenge with methicillin-susceptible S. aureus strain ATCC 13709.)

[8] = test system: S. aureus Col(Meth^R)(lac^-); assay: In vitro MIC, agar dilution; type: cell-based; conditions: Staphylococcus aureus, read-out: minimum inhibitory concentration (MIC)
Experimental: as §1, §2, §3, §4, §5, §6
The S. aureus Col strain is a high-level PBP2a producer, whereas S. aureus Col 8A, its isogenic partner, lacks PBP2a.

Structure (SMILES)	MIC [1]	MIC [2]	MIC (E. faecalis VanB(Van^R))	MIC (E. coli ATCC 25992)	MIC [3]	MIC (P. aeruginosa ATCC 27853)	MIC [4]	MIC (E. faecium A491(Amp^R))	MIC (E. faecalis ATCC 29212)	MIC [5]	MIC [6]	MIC (E. faecium ATCC 35667)	MIC (E. faecium VanA(Van^R))	MIC (S. aureus ATCC 29213)	MIC [8]	further results
CNCC(=O)NCCSCc1cnccc1SC1=C(C(=O)O)N2C(=O)[C@@H](NC(=O)/C(=N\O)c3csc(N)n3)[C@H]2SC1 [Cmpd 18, (7R)-7-[(Z)-2-(aminothiazol-4-yl)-2-(hydroxyimino)acetamido]-3-[3-(N-methylglycyl)aminoethylthiomethylpyrid-4-ylthio]-3-cephem-4-carboxylate, trifluoroacetic acid salt]	1 µg/mL	1 µg/mL	0.5 µg/mL	8 µg/mL	4 µg/mL	> 32 µg/mL	8 µg/mL	> 32 µg/mL	0.25 µg/mL	8 µg/mL	8 µg/mL	2 µg/mL	2 µg/mL	1 µg/mL	–	responders at 0.3125 mg/kg ([7]; Dose 0.3125 mg/kg, read-out: Survivors): 30%; responders at 0.625 mg/kg ([7]; Dose 0.625 mg/kg, read-out: Survivors): 20%; responders at 1.25 mg/kg ([7]; Dose 1.25 mg/kg, read-out: Survivors (converted)): 20%; responders at 2.5 mg/kg ([7]; Dose 2.5 mg/kg, read-out: Survivors): 20%; responders at 5 mg/kg ([7]; Dose 5 mg/kg, read-out: Survivors): 60%; ED50 ([7]; two equal doses, IP challenge, read-out: ED50): 4.44 mg/kg
CC(C)(CN)SCc1cnccc1SC1=C(C(=O)O)N2C(=O)[C@@H](NC(=O)/C(=N\O)c3csc(N)n3)[C@H]2SC1 [Cmpd 19, (7R)-7-[(Z)-2-(aminothiazol-4-yl)-2-(hydroxyimino)acetamido]-3-[3-(2-amino-1,1-dimethylethylthiomethyl)pyrid-4-ylthio]-3-cephem-4-carboxylate, trifluoroacetic acid salt]	0.5 µg/mL	0.5 µg/mL	0.5 µg/mL	8 µg/mL	8 µg/mL	> 32 µg/mL	8 µg/mL	> 32 µg/mL	1 µg/mL	16 µg/mL	8 µg/mL	1 µg/mL	2 µg/mL	0.5 µg/mL	8 µg/mL	–
NCCSc1cnccc1SC1=C(C(=O)O)N2C(=O)[C@@H](NC(=O)/C(=N\O)c3csc(N)n3)[C@H]2SC1 [Cmpd 20, (7R)-7-[(Z)-2-(aminothiazol-4-yl)-2-(hydroxyimino)acetamido]-3-(3-aminoethylthiopyrid-4-ylthio)-3-cephem-4-carboxylate, trifluoroacetic acid salt]	0.5 µg/mL	0.5 µg/mL	0.5 µg/mL	4 µg/mL	2 µg/mL	> 32 µg/mL	4 µg/mL	> 32 µg/mL	1 µg/mL	4 µg/mL	4 µg/mL	1 µg/mL	2 µg/mL	0.5 µg/mL	2 µg/mL	–
